Laboratory results reported in patent US4634712A, “Antihypertensive esters of 1,4-dihydro-2,6-dimethyl-3-(alkoxycarbonyl or alkoxyalkoxycarbonyl)-4-(substituted phenyl)-pyridine-5-carboxylic acid” (Recordati S.A., priority 1984, dated 1987).

Key:
[1] = test system: methacholine induced coronary spasm; experiment: Coronary dilating activity in anesthetized normotensive rats, antagonism of methacholine induced coronary spasm; format: in vivo; conditions: Rattus norvegicus, iv infusion, water:dimethylformamide 9:1
Description: Coronary dilating activity was evaluated in anesthetized normotensive rats (weighing about 500 g), as the ability to antagonize methacholine induced coronary spasm. Rats were instrumented for methacholine infusion into the coronary ostium, while spastic activity was detected as ST segment elevation in D2 ECG recording (K. Sakai et al., J. Pharm. Meth., 5, 325, 1981). The compounds tested by i.v. infusion were dissolved in water:dimethylformamide (9:1 by volume). Activity was detected as normalization of ECG tracing after compounds administration during methacholine infusion.

[2] = LD50 in the mouse per os (method of C. S. Weil); conditions: in vivo, po
Description: The LD50 of the compounds according to the invention was determined in the mouse per os, according to the method described by C. S. Weil (Biometrics, 8, 249, 1952).

[3] = test system: male hypertensive rats (SHR, Wister-Kyoto strain); experiment: Antihypertensive activity in male hypertensive rats (SHR), systolic blood pressure by tail-cuff; format: in vivo; conditions: Rattus norvegicus, po, os, 0.5% methylcellulose, measured 1, 3, 5 and 7 hours after administration
Description: The antihypertensive activity of the esters according to the invention was evaluated in male hypertensive rats (SHR, Wister-Kyoto strain, 15-25 weeks old). The determination of blood pressure was performed by an indirect method (M. Gerald et al., Arzneim, Forsch., 18, 1825, 1968). The animals were prewarmed in a heating chamber at a temperature of from 35° to 37° C. for a period of 15 minutes before pressure determination. The compounds tested by oral route were dissolved or suspended in a 0.5% methylcellulose solution. Controls were given only the vehicle. Systolic blood pressure and heart rate were measured 1, 3, 5 and 7 hours after drug administration by means of a tail-cuff and a pulse transducer.

SMILES | ED50 [1] [mg/kg] | LD50 [2] [mg/kg] | ED25 [3] [mg/kg]
COC(=O)C1=C(C)NC(C)=C(C(=O)OCCN(C)CCCC(C#N)(c2ccc(OC)c(OC)c2)C(C)C)C1c1cccc([N+](=O)[O-])c1 (centres unmarked) [Compound 2245, Methyl 2-[4-cyano-4-(3,4-dimethoxyphenyl)-5,N-dimethyl-hexylamino]-ethyl 1,4-dihydro-2,6-dimethyl-4-(3-nitrophenyl)-pyridine-3,5-dicarboxylate] | 0.301 | 278 | 6.8
COc1ccc(C(C#N)(CCCN(C)CC(C)OC(=O)C2=C(C)NC(C)=C(C(=O)OCC(C)C)C2c2cccc(Cl)c2Cl)C(C)C)cc1OC (centres unmarked) [Compound 2392, Isobutyl 2-[4-cyano-4-(3,4-dimethoxyphenyl)-5,N-dimethyl-hexylamino]-1-methylethyl 1,4-dihydro-2,6-dimethyl-4-(2,3-dichlorophenyl)-pyridine-3,5-dicarboxylate] |  |  | 14.9
CCCOCCOC(=O)C1=C(C)NC(C)=C(C(=O)OC(C)CN(C)CCCC(C#N)(c2ccc(OC)c(OC)c2)C(C)C)C1c1cccc(Cl)c1Cl (centres unmarked) [Compound 2404, 2-Propoxy-ethyl 2-[4-cyano-4-(3,4-dimethoxyphenyl)-5,N-dimethyl-hexylamino]-1-methylethyl 1,4-dihydro-2,6-dimethyl-4-(2,3-dichlorophenyl)-pyridine-3,5-dicarboxylate] |  |  | 17.8
